Where only a bound is given, the exact number is not on record here.

Results on 23 compounds are retold here after ChEMBL document CHEMBL5370606, “Diterpenoids from Euphorbia fischeriana with Kv1.3 Inhibitory Activity” (J Nat Prod, 2023).

Data set [1] relates to HEK293. Nature of the data set: Cytotoxicity against HEK293 cells. In kind it is toxicity, cell-based. Particulars: human.
The target in data set [2] is T1, Potassium voltage-gated channel subfamily A member 3 (Homo sapiens, UniProt P22001). The experiment in a line: Inhibition of Kv1.3 (unknown origin) expressed in HEK293 cells at 30 uM at -90 mV holding potential by automated patch-clamp technique relative to control. It counts as cell-based.
T1 sequence (P22001 whole entry): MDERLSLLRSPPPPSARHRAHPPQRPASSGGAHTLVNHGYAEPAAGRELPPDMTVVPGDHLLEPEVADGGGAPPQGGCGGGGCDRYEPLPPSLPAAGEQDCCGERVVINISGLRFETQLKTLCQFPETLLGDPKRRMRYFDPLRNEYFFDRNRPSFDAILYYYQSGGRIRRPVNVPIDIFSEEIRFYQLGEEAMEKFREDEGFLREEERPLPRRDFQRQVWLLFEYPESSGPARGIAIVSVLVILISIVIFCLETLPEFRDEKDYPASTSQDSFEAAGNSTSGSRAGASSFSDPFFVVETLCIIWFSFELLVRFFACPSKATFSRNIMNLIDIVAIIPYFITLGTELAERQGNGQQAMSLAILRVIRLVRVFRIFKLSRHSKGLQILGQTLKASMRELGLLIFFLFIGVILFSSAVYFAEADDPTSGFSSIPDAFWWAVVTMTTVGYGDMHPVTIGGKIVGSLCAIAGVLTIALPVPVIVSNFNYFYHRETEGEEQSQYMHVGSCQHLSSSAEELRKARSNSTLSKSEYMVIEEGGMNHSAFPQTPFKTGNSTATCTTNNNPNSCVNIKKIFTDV
Data set [3] deals with T2, hERG (KCNH2) (Homo sapiens, UniProt Q12809). Nature of the data set: Inhibition of human ERG expressed in HEK293 cells at 30 uM at -80 mV holding potential by whole-cell patch clamp method. Particulars: HEK293 cells that express hERG. It counts as toxicity, cell-based.
T2 sequence (Q12809 whole entry): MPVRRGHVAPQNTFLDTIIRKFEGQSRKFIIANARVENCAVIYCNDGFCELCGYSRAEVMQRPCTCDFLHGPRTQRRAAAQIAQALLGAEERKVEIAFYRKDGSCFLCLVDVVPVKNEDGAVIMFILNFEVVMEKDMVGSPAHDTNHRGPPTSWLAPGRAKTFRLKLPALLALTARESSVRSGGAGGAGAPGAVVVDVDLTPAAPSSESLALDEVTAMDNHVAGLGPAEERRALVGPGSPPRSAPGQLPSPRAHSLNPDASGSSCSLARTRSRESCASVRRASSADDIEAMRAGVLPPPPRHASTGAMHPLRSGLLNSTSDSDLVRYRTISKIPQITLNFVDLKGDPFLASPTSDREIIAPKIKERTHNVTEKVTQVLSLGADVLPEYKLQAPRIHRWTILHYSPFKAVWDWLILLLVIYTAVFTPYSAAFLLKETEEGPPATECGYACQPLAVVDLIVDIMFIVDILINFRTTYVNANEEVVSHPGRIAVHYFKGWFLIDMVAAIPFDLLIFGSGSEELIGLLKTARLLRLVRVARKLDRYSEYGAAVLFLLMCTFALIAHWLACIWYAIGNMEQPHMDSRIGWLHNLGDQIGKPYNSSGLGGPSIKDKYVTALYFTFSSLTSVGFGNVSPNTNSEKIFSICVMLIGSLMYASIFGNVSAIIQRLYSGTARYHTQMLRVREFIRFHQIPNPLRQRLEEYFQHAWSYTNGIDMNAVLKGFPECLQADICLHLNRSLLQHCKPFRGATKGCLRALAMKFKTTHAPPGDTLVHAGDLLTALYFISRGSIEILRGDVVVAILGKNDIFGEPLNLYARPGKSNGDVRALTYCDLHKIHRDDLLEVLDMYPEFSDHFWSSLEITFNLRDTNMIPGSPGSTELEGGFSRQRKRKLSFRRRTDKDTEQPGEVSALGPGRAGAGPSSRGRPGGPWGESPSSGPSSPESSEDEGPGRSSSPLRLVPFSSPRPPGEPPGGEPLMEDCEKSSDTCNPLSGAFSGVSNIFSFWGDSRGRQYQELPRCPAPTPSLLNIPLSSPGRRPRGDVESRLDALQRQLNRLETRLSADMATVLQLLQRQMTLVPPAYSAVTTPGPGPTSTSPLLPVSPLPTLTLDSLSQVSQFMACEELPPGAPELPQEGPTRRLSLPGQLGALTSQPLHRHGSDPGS
In data set [4] the target is T2, hERG (KCNH2). Nature of the data set: Inhibition of human ERG expressed in HEK293 cells at 10 uM at -80 mV holding potential by whole-cell patch clamp method. In kind it is toxicity, cell-based. Particulars: HEK293 cells that express hERG.
Data set [5] concerns the target T1, Potassium voltage-gated channel subfamily A member 3. The experiment in a line: Inhibition of Kv1.3 (unknown origin) expressed in HEK293 cells at 10 uM at -90 mV holding potential by automated patch-clamp technique relative to control. In kind it is cell-based.
In data set [6] the target is Voltage-gated inwardly rectifying potassium channel KCNH2 (Homo sapiens, UniProt Q12809). Nature of the data set: Inhibition of human ERG expressed in HEK293 cells at -80 mV holding potential by whole-cell patch clamp method. In kind it is toxicity, cell-based.
Voltage-gated inwardly rectifying potassium channel KCNH2, sequence (Q12809 whole entry): as above
Data set [7] addresses T1, Potassium voltage-gated channel subfamily A member 3. The experiment in a line: Inhibition of Kv1.3 (unknown origin) expressed in HEK293 cells at -90 mV holding potential by automated patch-clamp technique. In kind it is cell-based.
For data set [8], the species on record is Homo sapiens. The experiment in a line: Selectivity index, ratio of IC50 for human ERG expressed in HEK293 cells to IC50 for Kv1.3 (unknown origin) expressed in HEK293 cells. In kind it is cell-based.

As to `CC1=C2C(=C[C@H]3[C@]4(C)CC[C@@H](O)C(C)(C)[C@H]4CC[C@]34O[C@H]24)OC1=O`, the Activity entry in data set [1] was “Non-Toxic”. The same compound had an inhibition in data set [2] of 14.5%.
The like results for `CC1(C)C(=O)CC[C@]2(C)[C@@H]1CC[C@@]13CC[C@@H](C[C@H]12)[C@](O)(CO)C3` were, in that order, “Non-Toxic” and 7.1%.
Turning to `C=C1C[C@@]23CC[C@@H]4C(C)(C)C(=O)CC[C@@]4(C)[C@@H]2C[C@@H]1[C@@H](O)C3=O`, the inhibition at 30 µM in data set [3] is 24.5%. The Activity entry in data set [1] is “Non-Toxic”. In addition, the inhibition in data set [2] is 32.3%.
For `CC(=O)OCC1=C[C@@H]2C(=O)[C@]3(C=C(C)[C@H](O)[C@@]3(O)[C@@H]1O)[C@H](C)C[C@@H]1[C@H]2C1(C)C`, in that order: 23.3%, “Non-Toxic” and 12.5%.
In the case of `Fc1ccc([C@@H]2CCNC[C@H]2COc2ccc3c(c2)OCO3)cc1` [PAROXETINE], the Activity entry in data set [1] is given as “Non-Toxic”. The inhibition in data set [2] is 35.1%.
The like results for `CC1(C)[C@H](O)CC[C@]2(C)[C@@H]1CC[C@@]13CC[C@@H](C[C@H]12)[C@](O)(CO)C3` were, in that order, “Non-Toxic” and 21%.
Regarding `CC(=O)O[C@@H]1CC(=O)C(C)(C)/C=C/[C@@H](C)[C@@H](O)[C@@]2(OC(C)=O)C[C@@H](C)[C@H](OC(=O)c3ccccc3)[C@@H]2/C=C/1C`, the inhibition at 30 µM in data set [3] was determined as 60.2%. In data set [4], this compound gave an inhibition at 10 µM of 36.9%. The Activity result in data set [1] was “Non-Toxic”. Also, the results for the inhibition in data set [5] and in data set [2] were 62.2% and 86.5%, respectively.
Consider `CC(=O)O[C@]12C[C@@H](C)[C@H](O)[C@@H]1[C@H]1O[C@]1(C)[C@H](O)C[C@H]1[C@@H](/C=C(\C)C2=O)C1(C)C`, for which the Activity entry in data set [1] is listed as “Non-Toxic”. Further, the inhibition in data set [5] is 39.2%; in data set [2] it was 75.1%.
Regarding `CC(=O)O[C@@H]1[C@@H](C)/C=C/C(C)(C)C(=O)C[C@@H](OC(C)=O)/C(C)=C/[C@H]2[C@@H](OC(=O)c3ccccc3)[C@H](C)C[C@]12O`, the Activity entry in data set [1] is reported as “Non-Toxic”. Also, the inhibition in data set [5] is 30.2%; in data set [2], 72%.
`CC(=O)O[C@H]1[C@@H](C)/C=C/C(C)(C)C(=O)CC(=O)/C(C)=C/[C@H]2[C@@H](OC(=O)c3ccccc3)[C@H](C)C[C@@]21O`: the Activity entry in data set [1] is reported as “Non-Toxic”. The inhibition in data set [5] worked out at 42.9%; in data set [2], 77.5%.
The compound `CC(=O)O[C@@H]1[C@@H](C)/C=C/C(C)(C)C(=O)C[C@@H](O)/C(C)=C/[C@H]2[C@@H](OC(=O)c3ccccc3)[C@H](C)C[C@]12OC(C)=O` returned an inhibition at 30 µM in data set [3] of 75.4%. In data set [4], this compound yielded an inhibition at 10 µM of 44.6%. The Activity result in data set [1] is “Non-Toxic”. The inhibition came out at 59.8% in data set [5] and 84.2% in data set [2].
In the case of `C/C1=C\[C@H]2[C@@H](OC(=O)c3ccccc3)[C@H](C)C[C@]2(O)[C@H](O)[C@@H](C)/C=C/C(C)(C)C(=O)C[C@H]1O`, the Activity result in data set [1] is given as “Non-Toxic”. Besides, the inhibition stood at 43.5% in data set [5] and 83.5% in data set [2].
Take `CC1=C2C=C3CC[C@@H]4C(C)(C)[C@H](O)CC[C@@]4(C)[C@]3(O)C[C@H]2OC1=O`: the Activity entry in data set [1] is reported as “Non-Toxic”. In data set [2], this compound returned an inhibition of 21.2%.
`CCC/C=C\C=C\C(=O)O[C@@H]1C[C@H]2[C@@H](/C=C(\C)C(=O)[C@@]3(OC(C)=O)C[C@@H](C)[C@H](O)[C@@H]3/C=C/1C)C2(C)C`: the Activity result in data set [1] is given as “Non-Toxic”. The inhibition in data set [5] is 39.8%; in data set [2], 77.7%.
As for `CC1=C2C=C3CC[C@@H]4C(C)(C)C(=O)CC[C@@]4(C)[C@]3(O)C[C@H]2OC1=O`, the Activity result in data set [1] is listed as “Non-Toxic”. Further, the inhibition in data set [2] amounted to 17.2%.
As to `COC(=O)CCC(=O)O[C@@H]1C[C@H]2[C@@H](/C=C(\C)C(=O)[C@@]3(OC(C)=O)C[C@@H](C)[C@H](O)[C@@H]3/C=C/1C)C2(C)C`, in data set [3], the inhibition at 30 µM was found to be 49.7%. This compound also showed an inhibition at 10 µM in data set [4] of 29.7%. Moreover, the Activity entry in data set [1] is given as “Non-Toxic”. Moreover, the inhibition in data set [5] stood at 47.6%; in data set [2], 89.4%.
Turning to `CC1=C2C=C3CC[C@@H]4C(C)(C)[C@H](O)C(=O)C[C@@]4(C)[C@@H]3C[C@H]2OC1=O`, the Activity entry in data set [1] is “Non-Toxic”. The compound further had an inhibition in data set [2] of 20.4%.
For `CC(=O)O[C@@H]1[C@@H](C)/C=C/C(C)(C)C(=O)C[C@@H](O)/C(C)=C/[C@H]2[C@@H](OC(=O)c3ccccc3)[C@H](C)C[C@]12O`, the Activity entry in data set [1] was “Non-Toxic”. Besides, the inhibition came to 28.7% in data set [5] and 69.3% in data set [2].
Regarding `C=C1C[C@@]23CC[C@@H]4C(C)(C)[C@H](O)CC[C@@]4(C)[C@@H]2C[C@@H]1[C@@H](O)C3=O`, the Activity entry in data set [1] is listed as “Non-Toxic”. Moreover, in data set [2], the inhibition was 10.4%.
Take `CC(=O)O[C@]12C[C@@H](C)[C@H](O)[C@@H]1/C=C(\C)[C@H](O)C[C@@H]1[C@@H](/C=C(\C)C2=O)C1(C)C`: in data set [1], the Activity result was “Non-Toxic”. In addition, the inhibition in data set [5] came out at 33.5%; in data set [2] it was 70.6%.
As for `CC(=O)O[C@]12C[C@@H](C)[C@H](O)[C@@H]1/C=C(\C)[C@H](O)C[C@H]1[C@@H](/C=C(\C)C2=O)C1(C)C`, in data set [1], the Activity entry is “Non-Toxic”. In addition, the figures for the inhibition in data set [5] and in data set [2] were 21.7% and 67.5%, respectively.
As for `CC1=C2C=C3CC[C@@H]4C(C)(C)C(=O)[C@H](O)[C@@]4(C)[C@@H]3C[C@H]2OC1=O`, testing at 30 µM in data set [3] gave an inhibition of 19.9%. Besides, the Activity result in data set [1] is “Non-Toxic”. In data set [2], this compound had an inhibition of 24.4%.
As for `CC(=O)O[C@]12C[C@@H](C)[C@H](OC(=O)c3ccccc3)[C@@H]1/C=C(\C)[C@H](O)C[C@H]1[C@@H](/C=C(\C)C2=O)C1(C)C`, the IC50 in data set [6] is above 30 µM; in data set [7], 4.3 µM. In addition, the Ratio IC50 in data set [8] is above 7. This compound registered an inhibition at 30 µM in data set [3] of 40.9%. Further, the Activity entry in data set [1] is “Non-Toxic”. Further, the results for the inhibition in data set [5] and in data set [2] were 55.6% and 81.2%, respectively.
